pIC50: −log10 of the molar value.
Key:
[1] = target: T1, CDK1/Cyclin B (Homo sapiens, UniProt P06493); assay: Enzymatic assay for CDK1 (FRET based LANCE Ultra kinase assay); assay type: biochemical; details: read-out: CDK1 enzymatic activity (IC50 range)
T1 construct: purchased Invitrogen PR4768C
In short: (§1)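 LANCE Ultra TR-FRET: ULight-MBP peptide (68 nM) with ATP at Km, […], 60 min at 23° C. EDTA plus Eu-anti-phospho-MBP added, another 60 min, then 665/615 nm emission read. Compounds tested as 8-dose 4-fold DMSO dilutions.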

[2] = target: T2, CDK2/Cyclin A (Homo sapiens, UniProt P24941); assay: Enzymatic assay for CDK2 (FRET based LANCE Ultra kinase assay); assay type: biochemical; details: read-out: CDK2 enzymatic activity (IC50 range)
T2 construct: purchased Invitrogen PV6290
In short: as §1

[3] = target: T3, CDK5/p25 (Homo sapiens, UniProt Q00535); assay: Enzymatic assay for CDK5 (FRET based LANCE Ultra kinase assay); assay type: biochemical; details: read-out: CDK5 enzymatic activity (IC50 range)
T3 construct: purchased Invitrogen PR8543B
T3 sequence (Q00535 whole entry): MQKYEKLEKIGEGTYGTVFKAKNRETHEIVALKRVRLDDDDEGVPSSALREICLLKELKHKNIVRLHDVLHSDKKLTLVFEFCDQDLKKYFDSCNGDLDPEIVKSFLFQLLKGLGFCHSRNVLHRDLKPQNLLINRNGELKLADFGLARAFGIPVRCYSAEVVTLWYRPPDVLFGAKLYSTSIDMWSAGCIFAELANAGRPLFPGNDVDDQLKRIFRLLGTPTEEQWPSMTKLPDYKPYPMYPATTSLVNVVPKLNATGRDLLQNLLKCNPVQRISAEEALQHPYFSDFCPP
T3 sequence (Q15078 99-307 partner limits assumed): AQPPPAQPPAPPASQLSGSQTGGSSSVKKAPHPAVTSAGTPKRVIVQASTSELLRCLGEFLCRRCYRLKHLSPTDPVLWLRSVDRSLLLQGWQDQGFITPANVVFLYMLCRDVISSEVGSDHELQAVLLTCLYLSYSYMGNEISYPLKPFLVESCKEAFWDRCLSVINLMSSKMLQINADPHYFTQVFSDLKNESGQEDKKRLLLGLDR
In short: as §1

[4] = target: T4, CDK7/Cyclin H/MNAT1 (Homo sapiens, UniProt P50613); assay: Enzymatic assay for CDK7 (FRET based LANCE Ultra kinase assay); assay type: biochemical; details: for pIC50: read-out: CDK7 enzymatic activity (IC50 range)
T4 construct: purchased Invitrogen PR6749B
T4 sequence (P50613 whole entry): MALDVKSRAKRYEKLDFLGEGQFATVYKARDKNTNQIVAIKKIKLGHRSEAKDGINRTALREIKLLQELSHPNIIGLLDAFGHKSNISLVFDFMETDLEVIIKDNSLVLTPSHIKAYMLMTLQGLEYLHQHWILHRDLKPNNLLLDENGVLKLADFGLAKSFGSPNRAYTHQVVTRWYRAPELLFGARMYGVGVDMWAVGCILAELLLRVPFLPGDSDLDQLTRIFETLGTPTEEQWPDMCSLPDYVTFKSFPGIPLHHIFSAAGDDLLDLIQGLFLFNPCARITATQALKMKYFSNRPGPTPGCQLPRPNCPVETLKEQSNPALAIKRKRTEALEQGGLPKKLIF
T4 sequence (P51946 whole entry partner): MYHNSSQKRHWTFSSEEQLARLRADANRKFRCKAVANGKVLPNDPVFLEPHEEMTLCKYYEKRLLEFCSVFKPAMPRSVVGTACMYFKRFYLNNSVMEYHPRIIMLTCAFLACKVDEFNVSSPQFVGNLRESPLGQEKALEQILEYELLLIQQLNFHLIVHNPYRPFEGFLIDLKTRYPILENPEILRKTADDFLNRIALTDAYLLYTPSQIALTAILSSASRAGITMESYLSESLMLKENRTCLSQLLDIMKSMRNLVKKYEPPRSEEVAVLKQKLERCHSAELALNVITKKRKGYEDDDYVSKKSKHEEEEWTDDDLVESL
T4 sequence (P51948 whole entry partner): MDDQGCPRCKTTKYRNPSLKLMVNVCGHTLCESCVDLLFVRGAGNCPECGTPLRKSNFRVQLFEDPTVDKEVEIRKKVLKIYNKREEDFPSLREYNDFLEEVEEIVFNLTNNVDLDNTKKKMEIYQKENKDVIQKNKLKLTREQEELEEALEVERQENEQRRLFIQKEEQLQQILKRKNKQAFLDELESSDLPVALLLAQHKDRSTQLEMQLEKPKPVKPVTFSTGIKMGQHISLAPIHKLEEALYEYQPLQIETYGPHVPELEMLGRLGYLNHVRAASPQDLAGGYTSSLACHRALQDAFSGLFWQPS
In short: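 LANCE Ultra TR-FRET kinase assay using a ULight-labeled peptide substrate and a Eu-labeled anti-phospho antibody, with ATP at its Km. Purified CDK/cyclin complex was added to compound after brief centrifugation.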

[5] = tested on: H460; assay: Cellular H460 viability assay (CellTiter-Glo, 72 hours); assay type: cell-based; details: Homo sapiens, NCI-H460
In short: (§2)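 Cells were plated at line-specific densities and exposed to compound for 72 hours at 37 °C, 5% CO2, with DMSO-only wells as control (final DMSO below 0.1%). Viability was measured by CellTiter-Glo luminescence in duplicate.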

[6] = tested on: MM.1S; assay: Cellular MM.1S viability assay (CellTiter-Glo, 72 hours); assay type: cell-based; details: Homo sapiens, MM1.S
Text: Human T-cell acute lymphoblastic leukemia cell line, MOLT-4 (ATCC, Cat #CRL-1582), Human multiple myeloma cell line, RPMI-8226 (Invitrogen, Cat #22400-089) and MM.1S (ATCC, Cat #CRL-2974), NSCLC (Non-small cell lung cancer) cell line H460 (ATCC, Cat #HTB-177), Human colon colorectal carcinoma cell line HCT116 (ATCC, Cat #CCL-247), Human acute monocytic leukemia cell line MV4-11 (ATCC, Cat #CRL-9591), OVCAR-3 (ATCC, Cat #HTB-161) and A2780 (ECACC, Cat #93112519) were obtained from ATCC. Cells were grown in RPMI-1640 media (Invitrogen, Cat #22400-089) supplemented with 10% FBS (Invitrogen, Cat #10099141) and 1% penicillin/streptomycin (Invitrogen, Cat #15070063) and cultured at 37° C., 5% CO2 in a humidified chamber. All cell lines were routinely tested for mycoplasma.
The effect of the CDK7 inhibitor to inhibit the growth of target cancer cells was evaluated through the 72 hours time period of viability assay. Briefly, the candidate cell line ware plated in 96 well plate at the following density of cells respectively. 1×10^4 cells/well for MOLT-4, RPMI-8226, MV4-11 and MM.1S, 5×10^3 for H460, HCT116 and OVCAR-3 and IX 10^3 for A2780. After 24 hours, the cells were treated with various concentrations of the compound (ranging from 0.0015 uM to 10 uM). DMSO solvent without compound served as a control and final DMSO concentration less than 0.1%. After 72 hours of incubation at 37° C., 5% CO2 incubator, cells were analyzed for the viability using the CellTiter-Glo Luminescent Cell Viability Assay (Promega, Cat #G7570). All viability assays were performed in duplicate and Luminescence was read using an Envision (Perkin Elmer, USA). Data was analyzed using XLfit software.

[7] = tested on: MV4-11; assay: Cellular MV4-11 viability assay (CellTiter-Glo, 72 hours); assay type: cell-based; details: Homo sapiens
In short: as §2

[8] = tested on: MOLT-4; assay: Cellular MOLT-4 viability assay (CellTiter-Glo, 72 hours); assay type: cell-based; details: Homo sapiens, MOLT4 viability assay
In short: as §2

[9] = tested on: RPMI-8226; assay: Cellular RPMI-8226 viability assay (CellTiter-Glo, 72 hours); assay type: cell-based; details: Homo sapiens
In short: as §2

[10] = tested on: HCT116; assay: Cellular HCT116 viability assay (CellTiter-Glo, 72 hours); assay type: cell-based; details: Homo sapiens, HCT-116
In short: as §2

T1 sequence (P06493 whole entry): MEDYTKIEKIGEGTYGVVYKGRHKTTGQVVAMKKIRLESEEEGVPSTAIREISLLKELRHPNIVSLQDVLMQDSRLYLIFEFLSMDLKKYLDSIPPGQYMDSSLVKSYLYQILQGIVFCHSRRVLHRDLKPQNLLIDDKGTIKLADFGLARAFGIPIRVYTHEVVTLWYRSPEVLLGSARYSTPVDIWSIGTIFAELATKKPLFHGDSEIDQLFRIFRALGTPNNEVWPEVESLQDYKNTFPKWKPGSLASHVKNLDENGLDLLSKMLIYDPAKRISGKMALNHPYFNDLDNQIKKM
T1 sequence (P14635 whole entry partner): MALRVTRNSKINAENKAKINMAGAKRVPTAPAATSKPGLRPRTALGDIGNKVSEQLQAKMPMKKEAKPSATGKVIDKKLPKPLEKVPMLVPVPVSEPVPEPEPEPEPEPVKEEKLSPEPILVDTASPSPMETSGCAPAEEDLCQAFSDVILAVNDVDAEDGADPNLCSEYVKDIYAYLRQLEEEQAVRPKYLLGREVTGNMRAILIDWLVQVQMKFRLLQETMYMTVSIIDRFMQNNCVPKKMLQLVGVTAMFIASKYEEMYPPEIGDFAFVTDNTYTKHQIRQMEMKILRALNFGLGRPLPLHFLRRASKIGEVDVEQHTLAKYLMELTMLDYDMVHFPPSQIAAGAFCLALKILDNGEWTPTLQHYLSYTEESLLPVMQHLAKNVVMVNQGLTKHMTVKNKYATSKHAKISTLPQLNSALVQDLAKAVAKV

SMILES | pIC50 [1] | pIC50 [2] | pIC50 [3] | CDK1/CDK7: Selectivity of CDK7 inhibition over CDK1 inhibition [4] | CDK2/CDK7: Selectivity of CDK7 inhibition over CDK2 inhibition [4] | CDK5/CDK7: Selectivity of CDK7 inhibition over CDK5 inhibition [4] | pIC50 [4] | pIC50 [5] | pIC50 [6] | pIC50 [7] | pIC50 [8] | pIC50 [9] | pIC50 [10]
CC(C)c1cnn2c(NCc3ccccc3-n3cccn3)nc(N3CCC(N4CCNCC4)CC3)nc12 [Compound 174] | < 6.00 | < 6.00 | 6.00 to 7.00 | A (A=greater than 200 fold) | A (A=greater than 200 fold) | B (B=less than 200 fold, but greater than 20 fold) | > 7.00 | > 6.00 | ≥ 6.00 | > 6.00 | < 5.00 |  | 
CC(C)c1cnn2c(NCc3ccccc3-c3cc4cccc(NC(=O)CCCN(C)C)c4[nH]3)nc(N3CCC(N)CC3)nc12 [Compound 143] | 6.00 to 7.00 | 6.00 to 7.00 | > 7.00 | B (B=less than 200 fold, but greater than 20 fold) | B (B=less than 200 fold, but greater than 20 fold) | C (C=less than 20 fold) | > 7.00 | 5.00 to 6.00 | ≥ 6.00 | > 6.00 |  | 5.00 to 6.00 | 
CC(C)c1cnn2c(NCc3c(Cl)cccc3-n3ccc(C(=O)NC4CCNCC4)n3)nc(N3CCC(N)CC3)nc12 [Compound 196] | < 6.00 | < 6.00 | 6.00 to 7.00 | A (A=greater than 200 fold) | A (A=greater than 200 fold) | A (A=greater than 200 fold) | > 7.00 | 5.00 to 6.00 | 5.00 to 6.00 | > 6.00 |  |  | > 6.00
CC(C)c1cnn2c(NCc3c(Cl)cccc3-c3ccn(C4CCNCC4)n3)nc(N3CCC(N)CC3)nc12 [Compound 195] | < 6.00 | < 6.00 | 6.00 to 7.00 | A (A=greater than 200 fold) | A (A=greater than 200 fold) | A (A=greater than 200 fold) | > 7.00 | > 6.00 | ≥ 6.00 | > 6.00 |  |  | > 6.00
CC(C)c1cnn2c(NCc3ccccc3-n3ccc(C(=O)NC4CCOCC4)n3)nc(N3CCC(N)CC3)nc12 [Compound 177] | 6.00 to 7.00 | 6.00 to 7.00 | > 7.00 | A (A=greater than 200 fold) | B (B=less than 200 fold, but greater than 20 fold) | C (C=less than 20 fold) | > 7.00 | > 6.00 | ≥ 6.00 | > 6.00 |  |  | > 6.00
CC(=O)NC1CCc2nn(-c3ccccc3CNc3nc(N4CCC(N)CC4)nc4c(C(C)C)cnn34)cc2C1 (centres unmarked) [Compound 150] | < 6.00 | < 6.00 | 6.00 to 7.00 | A (A=greater than 200 fold) | A (A=greater than 200 fold) | B (B=less than 200 fold, but greater than 20 fold) | > 7.00 | > 6.00 | ≥ 6.00 | > 6.00 |  |  | > 6.00
CNC(=O)c1ccn(-c2cccc(Cl)c2CNc2nc(N3CCC(N)CC3)nc3c(C(C)C)cnn23)n1 [Compound 197] | < 6.00 | < 6.00 | 6.00 to 7.00 | A (A=greater than 200 fold) | A (A=greater than 200 fold) | B (B=less than 200 fold, but greater than 20 fold) | > 7.00 | > 6.00 | ≥ 6.00 | > 6.00 |  |  | > 6.00
CC(C)c1cnn2c(N[C@@H](C)c3ccccc3-n3cc(N4CCNCC4)cn3)nc(N3CCC(N)CC3)nc12 [Compound 192] | < 6.00 | < 6.00 | < 6.00 | A (A=greater than 200 fold) | A (A=greater than 200 fold) | A (A=greater than 200 fold) | > 7.00 | 5.00 to 6.00 | 5.00 to 6.00 | > 6.00 |  |  | > 6.00
CC(C)c1cnn2c(NCc3c(Cl)cccc3-n3cc(N4CCNCC4)cn3)nc(N3CCC(N)CC3)nc12 [Compound 193] | < 6.00 | < 6.00 | 6.00 to 7.00 | A (A=greater than 200 fold) | A (A=greater than 200 fold) | B (B=less than 200 fold, but greater than 20 fold) | > 7.00 | > 6.00 | ≥ 6.00 | > 6.00 |  |  | > 6.00
Cc1cccc(-c2cc3ccccc3[nH]2)c1CNc1nc(N2CCC(N)CC2)nc2c(C(C)C)cnn12 [Compound 184] | < 6.00 | < 6.00 | 6.00 to 7.00 | A (A=greater than 200 fold) | A (A=greater than 200 fold) | B (B=less than 200 fold, but greater than 20 fold) | > 7.00 | > 6.00 | ≥ 6.00 | > 6.00 |  |  | > 6.00

From US11945822B2, “Pyrazolo-triazine and/or pyrazolo-pxrimidine derivatives as selective inhibitor of cyclin dependent kinase” (QURIENT CO., LTD., priority 2018, dated 2024)
